Experimental data: the NIST ThermoML archive (doi:10.1016/j.fluid.2018.05.028)

Assay: xn = mol fraction of the nth substance listed
Settings: 101 kPa, Liquid; for viscosity: Concentric cylinders viscometry; for speed of sound: Single path-length method; for mass density: Vibrating tube method

CCCCCCCCCCCCCCCC [hexadecane] + CCCCO
Settings | mass density [kg/m3] | speed of sound [m/s] | viscosity [mPa·s]
293.15 K, x2 = 0 | 773.35 | 1357.4 | 3.408
293.15 K, x2 = 0.1 | 773.9 | 1349.6 | 3.204
293.15 K, x2 = 0.2 | 774.92 | 1343.3 | 3.109
293.15 K, x2 = 0.3 | 776.24 | 1336.8 | 2.998
293.15 K, x2 = 0.4 | 777.91 | 1329.7 | 2.935
293.15 K, x2 = 0.5 | 780.07 | 1322 | 2.9
293.15 K, x2 = 0.6 | 782.88 | 1313.4 | 2.854
293.15 K, x2 = 0.7 | 786.53 | 1303.1 | 2.874
293.15 K, x2 = 0.8 | 791.49 | 1290.7 | 2.875
293.15 K, x2 = 0.9 | 798.54 | 1275.4 | 2.856
298.15 K, x2 = 0 | 769.87 | 1338.5 | 3.035
298.15 K, x2 = 0.1 | 770.35 | 1330.6 | 2.852
298.15 K, x2 = 0.2 | 771.34 | 1324.4 | 2.77
298.15 K, x2 = 0.3 | 772.63 | 1317.9 | 2.675
298.15 K, x2 = 0.4 | 774.28 | 1310.8 | 2.616
298.15 K, x2 = 0.5 | 776.41 | 1303.2 | 2.578
298.15 K, x2 = 0.6 | 779.18 | 1294.7 | 2.535
298.15 K, x2 = 0.7 | 782.81 | 1284.7 | 2.543
298.15 K, x2 = 0.8 | 787.73 | 1272.7 | 2.541
298.15 K, x2 = 0.9 | 794.77 | 1257.8 | 2.52
303.15 K, x2 = 0 | 766.4 | 1319.8 | 2.708
303.15 K, x2 = 0.1 | 766.82 | 1311.8 | 2.544
303.15 K, x2 = 0.2 | 767.77 | 1305.6 | 2.471
303.15 K, x2 = 0.3 | 769.03 | 1299.1 | 2.387
303.15 K, x2 = 0.4 | 770.64 | 1292.1 | 2.332
303.15 K, x2 = 0.5 | 772.74 | 1284.6 | 2.294
303.15 K, x2 = 0.6 | 775.47 | 1276.2 | 2.249
303.15 K, x2 = 0.7 | 779.07 | 1266.4 | 2.246
303.15 K, x2 = 0.8 | 783.97 | 1254.7 | 2.244
303.15 K, x2 = 0.9 | 790.97 | 1240.2 | 2.219
308.15 K, x2 = 0 | 762.95 | 1301.3 | 2.432
308.15 K, x2 = 0.1 | 763.28 | 1293.2 | 2.283
308.15 K, x2 = 0.2 | 764.19 | 1287 | 2.217
308.15 K, x2 = 0.3 | 765.42 | 1280.5 | 2.144
308.15 K, x2 = 0.4 | 766.99 | 1273.5 | 2.092
308.15 K, x2 = 0.5 | 769.05 | 1266.1 | 2.053
308.15 K, x2 = 0.6 | 771.75 | 1257.8 | 2.012
308.15 K, x2 = 0.7 | 775.31 | 1248.2 | 2.001
308.15 K, x2 = 0.8 | 780.17 | 1236.8 | 1.992
308.15 K, x2 = 0.9 | 787.14 | 1222.8 | 1.967
313.15 K, x2 = 0 | 759.49 | 1283.1 | 2.199
313.15 K, x2 = 0.1 | 759.74 | 1274.9 | 2.064
313.15 K, x2 = 0.2 | 760.61 | 1268.5 | 2.004
313.15 K, x2 = 0.3 | 761.8 | 1262.1 | 1.939
313.15 K, x2 = 0.4 | 763.33 | 1255.1 | 1.89
313.15 K, x2 = 0.5 | 765.35 | 1247.7 | 1.851
313.15 K, x2 = 0.6 | 768.01 | 1239.6 | 1.811
313.15 K, x2 = 0.7 | 771.52 | 1230.1 | 1.794
313.15 K, x2 = 0.8 | 776.34 | 1219 | 1.781
313.15 K, x2 = 0.9 | 783.27 | 1205.5 | 1.755
318.15 K, x2 = 0 | – | 1265 | 1.996
318.15 K, x2 = 0.1 | – | 1256.7 | 1.871
318.15 K, x2 = 0.2 | – | 1250.3 | 1.815
318.15 K, x2 = 0.3 | – | 1243.8 | 1.756
318.15 K, x2 = 0.4 | – | 1236.9 | 1.709
318.15 K, x2 = 0.5 | – | – | 1.67
318.15 K, x2 = 0.6 | – | – | 1.631
318.15 K, x2 = 0.7 | – | – | 1.613
318.15 K, x2 = 0.8 | – | – | 1.593
318.15 K, x2 = 0.9 | – | – | 1.564
